In ChEMBL document CHEMBL5252615, “Synthesis, biological activity and mechanism of action of novel allosecurinine derivatives as potential antitumor agents” (Bioorg Med Chem, 2023):
Active and inactive are the calls of the source. No cut-off for these calls is given here.

Tests used:
NB-4 [1] = test: Induction of apoptosis in human NB4 cells assessed as viable cells at 2.5 uM after 48 hrs by Annexin-V-FITC/PI staining based flow cytometric analysis (reference value: 97.96%); format: functional; settings: read-out: Activity
K562 [2] = test: Induction of apoptosis in human K562 cells assessed as decrease in expression level of Bcl-2 measured after 48 hrs by Western blotting analysis; format: functional, cell-based; settings: dose 1-5 µM
U-937 [3] = test: Induction of apoptosis in human U-937 cells assessed as decrease in expression level of Bcl-2 measured after 48 hrs by Western blotting analysis; format: functional, cell-based; settings: dose 1-5 µM
KG-1 [4] = test: Induction of apoptosis in human KG-1 cells assessed as decrease in expression level of Bcl-2 measured after 48 hrs by Western blotting analysis; format: functional, cell-based; settings: dose 1-5 µM
THP-1 [5] = test: Induction of apoptosis in human THP-1 cells assessed as decrease in expression level of Bcl-2 measured after 48 hrs by Western blotting analysis; format: functional, cell-based; settings: dose 1-5 µM
KG-1 [6] = test: Antitumor activity against human KG-1 cells assessed as reduction in cell viability incubated for 72 hrs; format: functional, cell-based; settings: KG-1, 72 h
SU-DHL-2 = test: Antitumor activity against human SUDHL2 cells assessed as reduction in cell viability incubated for 72 hrs; format: functional, cell-based; settings: SU-DHL-2, 72 h
KG-1 [7] = test: Induction of differentiation of human KG-1 cells assessed as increase in CD11b expression at 0.5 uM measured after 72 hrs by flow cytometric analysis; format: functional, cell-based
NB-4 [8] = test: Induction of apoptosis in human NB4 cells assessed as late apoptotic cells at 2.5 uM after 48 hrs by Annexin-V-FITC/PI staining based flow cytometric analysis (reference value: 0.89%); format: functional
NB-4 [9] = test: Induction of apoptosis in human NB4 cells assessed as necrotic cells at 2.5 uM after 48 hrs by Annexin-V-FITC/PI staining based flow cytometric analysis (reference value: 0.29%); format: functional
HL-60 [10] = test: Induction of apoptosis in human HL-60 cells assessed as late apoptotic cells at 2.5 uM after 48 hrs by Annexin-V-FITC/PI staining based flow cytometric analysis (reference value: 0.44%); format: functional
HL-60 [11] = test: Induction of apoptosis in human HL-60 cells assessed as necrotic cells at 2.5 uM after 48 hrs by Annexin-V-FITC/PI staining based flow cytometric analysis (reference value: 2.83%); format: functional
KG-1 [12] = test: Induction of apoptosis in human KG-1 cells assessed as viable cells at 2.5 uM after 48 hrs by Annexin-V-FITC/PI staining based flow cytometric analysis (reference value: 96.41%); format: functional
U-937 [13] = test: Induction of apoptosis in human U-937 cells assessed as viable cells at 2.5 uM after 48 hrs by Annexin-V-FITC/PI staining based flow cytometric analysis (reference value: 94.78%); format: functional; settings: read-out: Activity
U-937 [14] = test: Induction of apoptosis in human U-937 cells assessed as early apoptotic cells at 2.5 uM after 48 hrs by Annexin-V-FITC/PI staining based flow cytometric analysis (reference value: 2.87%); format: functional
U-937 [15] = test: Induction of apoptosis in human U-937 cells assessed as late apoptotic cells at 2.5 uM after 48 hrs by Annexin-V-FITC/PI staining based flow cytometric analysis (reference value: 0.94%); format: functional
U-937 [16] = test: Induction of apoptosis in human U-937 cells assessed as necrotic cells at 2.5 uM after 48 hrs by Annexin-V-FITC/PI staining based flow cytometric analysis (reference value: 1.41%); format: functional
THP-1 [17] = test: Induction of apoptosis in human THP-1 cells assessed as late apoptotic cells at 2.5 uM after 48 hrs by Annexin-V-FITC/PI staining based flow cytometric analysis (reference value: 1.26%); format: functional
HL-60 [18] = test: Induction of apoptosis in human HL-60 cells assessed as accumulation of cells at sub-G1 phase at 2.5 uM after 48 hrs by PI staining based flow cytometric analysis; format: functional, cell-based
THP-1 [19] = test: Induction of apoptosis in human THP-1 cells assessed as accumulation of cells at sub-G1 phase at 2.5 uM after 48 hrs by PI staining based flow cytometric analysis; format: functional, cell-based
K562 [20] = test: Induction of apoptosis in human K562 cells assessed as accumulation of cells at sub-G1 phase at 2.5 uM after 48 hrs by PI staining based flow cytometric analysis; format: functional, cell-based
KG-1 [21] = test: Induction of apoptosis in human KG-1 cells assessed as change in mitochondrial membrane potential after 48 hrs by JC-1 staining based flow cytometric analysis; format: functional, cell-based
U-937 [22] = test: Induction of apoptosis in human U-937 cells assessed as change in mitochondrial membrane potential after 48 hrs by JC-1 staining based flow cytometric analysis; format: functional, cell-based
KG-1 [23] = test: Induction of reactive oxygen species production in human KG-1 cells at 1 to 5 uM measured after 48 hrs by DCFH-DA staining based flow cytometric analysis; format: functional, cell-based; settings: dose 1-5 µM
THP-1 [24] = test: Induction of reactive oxygen species production in human THP-1 cells at 1 to 5 uM measured after 48 hrs by DCFH-DA staining based flow cytometric analysis; format: functional, cell-based; settings: dose 1-5 µM
KG-1 [25] = test: Induction of reactive oxygen species production in human KG-1 cells at 1 to 5 uM measured after 48 hrs by DCF fluorescence analysis; format: functional, cell-based; settings: dose 1-5 µM
THP-1 [26] = test: Induction of reactive oxygen species production in human THP-1 cells at 1 to 5 uM measured after 48 hrs by DCF fluorescence analysis; format: functional, cell-based; settings: dose 1-5 µM
KG-1 [27] = test: Induction of apoptosis in human KG-1 cells assessed as decrease in expression level of XIAP measured at 1 to 5 uM after 48 hrs by Western blotting analysis; format: functional, cell-based; settings: dose 1-5 µM
K562 [28] = test: Induction of apoptosis in human K562 cells assessed as decrease in expression level of XIAP measured at 1 to 5 uM after 48 hrs by Western blotting analysis; format: functional, cell-based; settings: dose 1-5 µM
NB-4 [29] = test: Induction of apoptosis in human NB4 cells assessed as decrease in expression level of YAP1 measured at 1 to 5 uM after 48 hrs by Western blotting analysis; format: functional, cell-based; settings: dose 1-5 µM
KG-1 [30] = test: Induction of apoptosis in human KG-1 cells assessed as decrease in expression level of YAP1 measured at 1 to 5 uM after 48 hrs by Western blotting analysis; format: functional, cell-based; settings: dose 1-5 µM
NB-4 [31] = test: Induction of apoptosis in human NB4 cells assessed as decrease in expression level of caspase 3/9 measured at 1 to 5 uM after 48 hrs by Western blotting analysis; format: functional, cell-based; settings: dose 1-5 µM
U-937 [32] = test: Induction of apoptosis in human U-937 cells assessed as decrease in expression level of PARP measured at 1 to 5 uM after 48 hrs by Western blotting analysis; format: functional, cell-based; settings: dose 1-5 µM
U-937 [33] = test: Induction of apoptosis in human U-937 cells assessed as increase in expression level of p21 measured at 1 to 5 uM after 48 hrs by Western blotting analysis; format: functional, cell-based; settings: dose 1-5 µM

Q: With `O=C1O[C@@]23C[C@@H](C=CC2=C1C(O)c1ccc([N+](=O)[O-])cc1)N1CCCC[C@H]13` (some centres undefined) as the compound, how does the viability at 2.5 µM (NB-4 [1]) read?
A: The viability at 2.5 µM was 22.9%.

Q: What about the Activity (K562 [2]) of the same compound?
A: Its Activity is “Dose-Dependent Effect”.

Q: And the Activity (U-937 [3])?
A: The Activity was “Dose-Dependent Effect”.

Q: And the Activity (KG-1 [4])?
A: The Activity was “Dose-Dependent Effect”.

Q: And the Activity (THP-1 [5])?
A: Its Activity is “Dose-Dependent Effect”.

Q: And the IC50 (KG-1 [6])?
A: The IC50 was 1.06 µM.

Q: And the IC50 (SU-DHL-2)?
A: The IC50 was 8.68 µM.

Q: What about the Activity (KG-1 [7]) of the same compound?
A: The Activity was “Active”.

Q: What about the Activity (NB-4 [8]) of the same compound?
A: Its Activity is 50.58%.

Q: What about the Activity (NB-4 [9]) of the same compound?
A: Its Activity is 3.4%.

Q: And the Activity (HL-60 [10])?
A: Its Activity is 6.43%.

Q: What about the Activity (HL-60 [11]) of the same compound?
A: Its Activity is 2.42%.

Q: And the Activity (KG-1 [12])?
A: The Activity was 45.18%.

Q: What about the viability at 2.5 µM (U-937 [13]) of the same compound?
A: Its viability at 2.5 µM is 41.3%.

Q: And the Activity (U-937 [14])?
A: Its Activity is 13.42%.

Q: What about the Activity (U-937 [15]) of the same compound?
A: The Activity was 15.33%.

Q: And the Activity (U-937 [16])?
A: Its Activity is 29.96%.

Q: And the Activity (THP-1 [17])?
A: The Activity was 11.77%.

Q: What about the Activity (HL-60 [18]) of the same compound?
A: Its Activity is “Active”.

Q: What about the Activity (THP-1 [19]) of the same compound?
A: Its Activity is “Active”.

Q: And the Activity (K562 [20])?
A: The Activity was “Active”.

Q: And the Activity (KG-1 [21])?
A: The Activity was “Active”.

Q: What about the Activity (U-937 [22]) of the same compound?
A: Its Activity is “Active”.

Q: What about the Activity (KG-1 [23]) of the same compound?
A: The Activity was “Active”.

Q: What about the Activity (THP-1 [24]) of the same compound?
A: The Activity was “Active”.

Q: And the Activity (KG-1 [25])?
A: The Activity was “Active”.

Q: And the Activity (THP-1 [26])?
A: The Activity was “Active”.

Q: And the Activity (KG-1 [27])?
A: The Activity was “Active”.

Q: And the Activity (K562 [28])?
A: The Activity was “Active”.

Q: And the Activity (NB-4 [29])?
A: The Activity was “Active”.

Q: And the Activity (KG-1 [30])?
A: Its Activity is “Active”.

Q: And the Activity (NB-4 [31])?
A: The Activity was “Active”.

Q: What about the Activity (U-937 [32]) of the same compound?
A: The Activity was “Active”.

Q: What about the Activity (U-937 [33]) of the same compound?
A: Its Activity is “Active”.
